ChEMBL document CHEMBL5042514, “Picolylamine-functionalized benz[e]indole squaraine dyes: Synthetic approach, characterization and in vitro efficacy as potential anticancer phototherapeutic agents” (Eur J Med Chem, 2022)
Activity calls are given as the source filed them. No cut-off for these calls is given here.

Tests used:
[1] = Dark toxicity against human Caco-2 cells assessed as reduction in cell viability incubated for 24 hrs by MTT assay; format: cell-based
[2] = Selectivity ratio of IC50 for phototoxicity against human NHDF cells upon LED light irradiation to IC50 for phototoxicity against human PC-3 cells upon LED light irradiation; format: toxicity, cell-based; settings: NHDF cells versus PC-3 cells, read-out: Ratio IC50
HeLa [3] = experiment: Induction of morphological change in human HeLa cells assessed as reduction in adhesion at 0.25 uM preincubated for 24 hrs followed by 7 mins of LED light irradiation and measured upto 48 hrs by microscopic analysis; format: functional, cell-based; settings: time min <=4327
HeLa [4] = experiment: Induction of cell cycle arrest in human HeLa cells assessed as accumulation in G0/G1 phase at 0.24 uM by PI staining based flow cytometry analysis (reference value: 67.03 %); format: functional
HeLa [5] = experiment: Induction of cell cycle arrest in human HeLa cells assessed as accumulation in G0/G1 phase at 1 uM by PI staining based flow cytometry analysis (reference value: 67.03 %); format: functional
[6] = Phototoxicity ratio of IC50 for cytotoxicity against human NHDF cells assessed as reduction in cell viability in dark to IC50 for phototoxicity against human NHDF cells upon LED light irradiation; format: toxicity, cell-based; settings: read-out: Ratio IC50
[7] = Dark toxicity against human PC-3 cells assessed as reduction in cell viability incubated for 24 hrs by MTT assay; format: cell-based
HeLa [8] = experiment: Induction of cell cycle arrest in human HeLa cells assessed as accumulation in S phase at 1 uM by PI staining based flow cytometry analysis (reference value: 32.14 %); format: functional
HeLa [9] = experiment: Induction of cell cycle arrest in human HeLa cells assessed as accumulation in S phase at 0.24 uM by PI staining based flow cytometry analysis (reference value: 32.14 %); format: functional
HeLa [10] = experiment: Induction of apoptosis in human HeLa cells at 0.24 uM preincubated for 24 hrs followed by 7 mins LED light irradiation and measured after 24 hrs by PI staining based flow cytometry analysis; format: functional; settings: time 2887 min, 48.12 h
HeLa [11] = experiment: Induction of morphological change in human HeLa cells assessed as plasma membrane rupture at 1 uM preincubated for 24 hrs followed by 7 mins of LED light irradiation and measured upto 48 hrs by microscopic analysis; format: functional; settings: time min <=4327
HeLa [12] = experiment: Induction of morphological change in human HeLa cells assessed as cell shrinkage at 0.25 uM preincubated for 24 hrs followed by 7 mins of LED light irradiation and measured upto 48 hrs by microscopic analysis; format: functional, cell-based; settings: time min <=4327
[13] = Phototoxicity against human HeLa cells assessed as reduction in cell viability preincubated for 24 hrs followed by 7 mins of LED light irradiation by MTT assay; format: toxicity, cell-based; settings: light or radiation study
HeLa [14] = experiment: Induction of morphological change in human HeLa cells assessed as rounded cell morphology at 0.25 uM preincubated for 24 hrs followed by 7 mins of LED light irradiation and measured upto 48 hrs by microscopic analysis; format: functional, cell-based; settings: time min <=4327
[15] = Drug localization in mitochondria of human HeLa cells at 1 uM incubated for 24 hrs by Rhodamine 123 based confocal laser scanning microscopy analysis; format: ADME
HeLa [16] = experiment: Induction of cell cycle arrest in human HeLa cells assessed as accumulation in G0/G1 phase at 0.24 uM with red light radiation for 7 mins by PI staining based flow cytometry analysis (reference value: 63.18 %); format: functional
[17] = Dark toxicity against human HeLa cells assessed as reduction in cell viability incubated for 24 hrs by MTT assay; format: cell-based
[18] = Dark toxicity against human NHDF cells assessed as reduction in cell viability incubated for 24 hrs by MTT assay; format: cell-based
HeLa [19] = experiment: Induction of apoptosis in human HeLa cells assessed as increase in DNA cleavage at 1 uM preincubated for 24 hrs followed by 7 mins LED light irradiation and measured after 24 hrs by PI staining based flow cytometry analysis; format: functional; settings: time 2887 min, 48.12 h
[20] = Phototoxicity against human NHDF cells assessed as reduction in cell viability preincubated for 24 hrs followed by 7 mins of LED light irradiation by MTT assay; format: toxicity, cell-based
[21] = Phototoxicity against human Caco-2 cells assessed as reduction in cell viability preincubated for 24 hrs followed by 7 mins of LED light irradiation by MTT assay; format: toxicity, cell-based; settings: Caco-2, light or radiation study
[22] = Phototoxicity against human MCF7 cells assessed as reduction in cell viability preincubated for 24 hrs followed by 7 mins of LED light irradiation by MTT assay; format: toxicity, cell-based; settings: MCF7, light or radiation study
[23] = Selectivity ratio of IC50 for phototoxicity against human NHDF cells upon LED light irradiation to IC50 for phototoxicity against human Caco-2 cells upon LED light irradiation; format: toxicity, cell-based; settings: NHDF cells versus Caco-2 cells, read-out: Ratio IC50
HeLa [24] = experiment: Induction of cell cycle arrest in human HeLa cells assessed as accumulation in S phase at 0.24 uM with red light radiation for 7 mins by PI staining based flow cytometry analysis (reference value: 32.09 %); format: functional
[25] = Phototoxicity against human PC-3 cells assessed as reduction in cell viability preincubated for 24 hrs followed by 7 mins of LED light irradiation by MTT assay; format: toxicity, cell-based; settings: PC-3, light or radiation study
[26] = Genotoxicity in human HeLa cells assessed as genetic damage index at 1 uM measured after 24 hrs in absence of light by alkali comet assay; format: toxicity, cell-based
HeLa [27] = experiment: Induction of cell cycle arrest in human HeLa cells assessed as accumulation in G2/M phase at 0.24 uM by PI staining based flow cytometry analysis (reference value: 4.79 %); format: functional
[28] = Phototoxicity ratio of IC50 for cytotoxicity against human PC-3 cells assessed as reduction in cell viability in dark to IC50 for phototoxicity against human PC-3 cells upon LED light irradiation; format: toxicity, cell-based
[29] = Phototoxicity ratio of IC50 for cytotoxicity against human MCF7 cells assessed as reduction in cell viability in dark to IC50 for phototoxicity against human MCF7 cells upon LED light irradiation; format: toxicity, cell-based
[30] = Dark toxicity against human MCF7 cells assessed as reduction in cell viability incubated for 24 hrs by MTT assay; format: cell-based
HeLa [31] = experiment: Induction of cell cycle arrest in human HeLa cells assessed as accumulation in G2/M phase at 0.24 uM with red light radiation for 7 mins by PI staining based flow cytometry analysis (reference value: 4.73 %); format: functional
[32] = Selectivity ratio of IC50 for phototoxicity against human NHDF cells upon LED light irradiation to IC50 for phototoxicity against human MCF7 cells upon LED light irradiation; format: toxicity, cell-based; settings: NHDF cells versus MCF7 cells, read-out: Ratio IC50
HeLa [33] = experiment: Induction of morphological change in human HeLa cells assessed as intracellular space dilation at 1 uM preincubated for 24 hrs followed by 7 mins of LED light irradiation and measured upto 48 hrs by microscopic analysis; format: functional, cell-based; settings: time min <=4327
Albumin = Albumin (Homo sapiens, UniProt P02768); experiment: Binding affinity to human serum albumin assessed as binding constant by fluorescence based assay
[34] = Selectivity ratio of IC50 for phototoxicity against human NHDF cells upon LED light irradiation to IC50 for phototoxicity against human HeLa cells upon LED light irradiation; format: toxicity, cell-based; settings: NHDF cells versus HeLa cells, read-out: Ratio IC50
[35] = Drug localization in lysosome of human HeLa cells at 1 uM incubated for 24 hrs by Green Fluorescent Protein based confocal laser scanning microscopy analysis; format: ADME, subcellular
[36] = Phototoxicity ratio of IC50 for cytotoxicity against human Caco-2 cells assessed as reduction in cell viability in dark to IC50 for phototoxicity against human Caco-2 cells upon LED light irradiation; format: toxicity, cell-based
[37] = Phototoxicity ratio of IC50 for cytotoxicity against human HeLa cells assessed as reduction in cell viability in dark to IC50 for phototoxicity against human HeLa cells upon LED light irradiation; format: toxicity, cell-based
HeLa [38] = experiment: Induction of cell cycle arrest in human HeLa cells assessed as accumulation in G2/M phase at 1 uM by PI staining based flow cytometry analysis (reference value: 4.79 %); format: functional

Chain of Albumin (P02768 whole entry): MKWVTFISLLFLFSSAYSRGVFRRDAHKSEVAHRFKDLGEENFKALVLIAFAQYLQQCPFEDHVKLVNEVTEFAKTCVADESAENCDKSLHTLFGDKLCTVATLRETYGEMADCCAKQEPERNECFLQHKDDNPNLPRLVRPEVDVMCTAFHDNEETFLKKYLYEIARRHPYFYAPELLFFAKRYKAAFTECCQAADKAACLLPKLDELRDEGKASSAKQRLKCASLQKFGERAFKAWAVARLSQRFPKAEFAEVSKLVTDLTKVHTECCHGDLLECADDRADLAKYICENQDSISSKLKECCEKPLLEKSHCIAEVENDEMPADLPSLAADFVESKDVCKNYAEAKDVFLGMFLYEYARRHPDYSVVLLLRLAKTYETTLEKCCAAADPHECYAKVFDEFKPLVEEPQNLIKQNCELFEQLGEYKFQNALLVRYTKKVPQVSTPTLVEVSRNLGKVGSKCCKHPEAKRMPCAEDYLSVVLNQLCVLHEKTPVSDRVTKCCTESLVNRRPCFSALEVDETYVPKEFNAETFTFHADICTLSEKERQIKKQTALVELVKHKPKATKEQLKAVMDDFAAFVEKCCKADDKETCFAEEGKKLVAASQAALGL

Drug uptake [15]: Active | Kb (Albumin): 6.93 10^5/M | Drug uptake [35]: Not Active
Structure (SMILES): CCN1/C(=C/C2=C(NCc3ccccn3)C(=C/C3=[N+](CC)c4ccc5ccccc5c4C3(C)C)/C2=O)C(C)(C)c2c1ccc1ccccc21.[I-]
IC50 at 24 h [1]: 2020 nM | selectivity ratio [2]: 3.02 | Activity (HeLa [3]): Active | Activity (HeLa [4]): 73.97% | Activity (HeLa [5]): 68.34% | selectivity ratio [6]: 8.1 | IC50 at 24 h [7]: 2070 nM | Activity (HeLa [8]): 26.68% | Activity (HeLa [9]): 22.04% | Activity (HeLa [10]): 2% | Activity (HeLa [11]): Active | Activity (HeLa [12]): Active | IC50 [13]: 240 nM | Activity (HeLa [14]): Active | Activity (HeLa [16]): 67.14% | IC50 at 24 h [17]: 2180 nM | IC50 at 24 h [18]: 2130 nM | Activity (HeLa [19]): 68% | IC50 at 24 h [20]: 263 nM | IC50 [21]: 92 nM | IC50 [22]: 165 nM | selectivity ratio [23]: 2.86 | Activity (HeLa [24]): 16.91% | IC50 [25]: 87 nM | Activity [26]: 24 a.u. | Activity (HeLa [27]): 4% | Ratio IC50 [28]: 23.8 | Ratio IC50 [29]: 9.8 | IC50 at 24 h [30]: 1610 nM | Activity (HeLa [31]): 15.95% | selectivity ratio [32]: 1.59 | Activity (HeLa [33]): Active | selectivity ratio [34]: 1.1 | Ratio IC50 [36]: 21.9 | Ratio IC50 [37]: 9.1 | Activity (HeLa [38]): 4.98%
